Test results taken from US11773086B2, “Fungal modulators” (TRUSTEES OF BOSTON UNIVERSITY, priority 2020, dated 2023).

Key:
C. auris = assay: microbe, parasite or virus in culture; format: cell-based, Candida auris; conditions: 50 μM azoffluxin, Etest
Description: FIGS. 2A-2E illustrate the above-described screening of the BU-CMD which identified azoffluxin as a fluconazole (FLC) potentiator against C. auris. […] Growth, as determined by optical density at 600 nm (OD600), is plotted in the presence of each CMD compound alone on the y-axis and in combination with FLC on the x-axis. Dotted lines represent 7-median absolute deviations from the median for each condition. […] FIG. 2B depicts the synergistic interactions. […] Growth was measured by the OD600 and normalized to the no drug control (see color bar). The fractional inhibitory concentration index (FICI) was calculated to determine the chemical interaction, with a value below 0.5 indicating synergy. […] FIG. 2D depicts FLC Etest strips in the presence and absence of 50 μM azoffluxin. A total of 1×10^6 C. auris cells were added to YPD agar plates, the E-test strip was added, and plates were incubated at 30° C. for 24 hours prior to imaging. FIG. 2. […] Dose-response assay where a two-fold dilution of azoffluxin was titered starting from 50 μM. Indicated titrations have a background concentration of FLC of 32 μg/mL, 4 μg/mL, 0.25 μg/mL, and 0.5 μg/mL for C. auris Ci6684 (Erg11Y132F), C. albicans (SN95), C. glabrata (BG2) or S. cerevisiae (BY4741), respectively. […] Dose response assays were incubated for 48 hours at 30° C. in RPMI. Growth in each well was plotted by the relative optical density to the respective no drug control (See color bar in FIG. 2B).
Compound potency was assessed alone by dose response assays or in combination with another compound by dose-response matrixes in 96-well plates, or 384-well, flat-bottom, microtiter plates (Corning) as previously described. Plates were incubated at 30° C. for the indicated time period. Growth was quantified by measuring OD600 and corrected for medium background. All strains were assessed in biological duplicate experiments with technical duplicates. […] For dose-response matrixes fractional inhibitory concentration index at 90% growth inhibition (FICI90) was calculated as previously described. […]

Tolerability = format: in vivo; conditions: 10 mg/Kg BID for 4 days

Compound: C=C(C)C[C@@H](O)COc1cc2c(cc1C1(c3cc4c(cc3OC[C@H](O)CC(=C)C)OCO4)C(=O)Nc3cc(F)ccc31)OCO2 [CMLD012336]
- fluconazole MIC in presence of azoffluxin (C. auris): 16 µg/mL
- reduction of fluconazole MIC (C. auris; solid medium): > 16 fold
- tolerability (Tolerability): well tolerated
